Measurements published in patent publication US20120157388A1, “EXTERNAL COMPOSITION FOR SKIN” (Shiseido Company, Ltd., priority 2007, published 2012).

Experiment: Stability evaluation of lotion (appearance and smell after storage)
Assay type: physicochemical
Settings: 50° C., one month
Procedure: For L-lysyl-β-alanine hydrochloride (Example 2), L-lysine (Comparative Example 6), and β-alanine (Comparative Example 7), the following external composition for skin was prepared, and the stability thereof was evaluated.
50 g each of Example 2, Comparative Example 6 and
Comparative Example 7 was placed in a 50 ml screw tube and capped. After storing them in a 50° C. incubator for one month, changes in appearance and smell were judged according to the following criteria.

stability in appearance (in words): excellently stable
stability in smell (in words): excellently stable
SMILES: NCCCC[C@H](N)C(=O)NCCC(=O)O [L-lysyl-β-alanine]
